Literature values in patent US8450339B2, “Compositions for treatment of common cold” (Takeda Pharma A/S, priority 2001, dated 2013).
Where a name gives a salt, the structure may show the parent alone.

Legend:
[1] = aqueous solution
[2] = following administration

Compound | Stability optimum, pH [1] | Mean duration of effect [2] [h]
Cc1cc(C(C)(C)C)cc(C)c1CC1=NCCN1 [xylometazoline hydrochloride] | 2 | –
CC(C)[N+]1(C)[C@@H]2CC[C@H]1CC(OC(=O)C(CO)c1ccccc1)C2.[Br-] (some centres unmarked) [ipratropium bromide] | – | 6
